Usually IC50 stands for the concentration that inhibits the measured activity by half.

One experiment concerns the target HDAC1 (Homo sapiens, UniProt Q13547). Briefly: HDAC1 inhibitory activity. In kind it is biochemical.
Another experiment deals with HDAC2 (Homo sapiens, UniProt Q92769). Briefly: HDAC2 inhibitory activity. The class given is biochemical.
Experiment [1] relates to neuroblastoma (SH-SY5Y) cell line. Briefly: cells. The following applies: for IC50: Homo sapiens, SH-SY5Y, 48 h, read-out: IC50 SH-SY5Y. The class given is cell-based.
In experiment [2] the test system is colorectal adenocarcinoma (HT-29) cell line. Briefly: cells. In kind it is cell-based. The following applies: for IC50: Homo sapiens, HT-29, 48 h, read-out: IC50 HT-29.
[3] abbreviates: HDAC1 IC50 (as printed in docking Table 3), unrounded values repeated in Table 3.
[4] abbreviates: HDAC2 IC50 (as printed in docking Table 4), unrounded values repeated in Table 4.
Where [5] appears, read: IC50 HDAC2, mean ± S.E. of three independent experiments.
[6] abbreviates: ratio of IC50 values vs Gefitinib.
The mark [7] stands for this setting: IC50 HDAC1, mean ± S.E. of three independent experiments.

Chain of HDAC1 (Q13547 whole entry): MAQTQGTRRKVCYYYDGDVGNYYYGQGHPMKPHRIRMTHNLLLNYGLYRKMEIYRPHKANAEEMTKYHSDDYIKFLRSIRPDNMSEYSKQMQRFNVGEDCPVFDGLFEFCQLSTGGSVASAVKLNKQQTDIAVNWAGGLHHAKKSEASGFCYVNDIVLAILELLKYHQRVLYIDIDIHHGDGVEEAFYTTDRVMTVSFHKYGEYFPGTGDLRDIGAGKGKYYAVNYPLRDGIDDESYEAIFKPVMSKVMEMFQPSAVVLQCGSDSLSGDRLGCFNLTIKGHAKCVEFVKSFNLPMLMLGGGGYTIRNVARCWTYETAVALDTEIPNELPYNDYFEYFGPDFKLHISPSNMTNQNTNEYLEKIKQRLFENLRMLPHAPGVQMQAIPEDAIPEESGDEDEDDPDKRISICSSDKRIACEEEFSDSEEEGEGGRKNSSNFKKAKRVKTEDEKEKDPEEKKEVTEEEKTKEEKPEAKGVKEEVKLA
Chain of HDAC2 (Q92769 whole entry): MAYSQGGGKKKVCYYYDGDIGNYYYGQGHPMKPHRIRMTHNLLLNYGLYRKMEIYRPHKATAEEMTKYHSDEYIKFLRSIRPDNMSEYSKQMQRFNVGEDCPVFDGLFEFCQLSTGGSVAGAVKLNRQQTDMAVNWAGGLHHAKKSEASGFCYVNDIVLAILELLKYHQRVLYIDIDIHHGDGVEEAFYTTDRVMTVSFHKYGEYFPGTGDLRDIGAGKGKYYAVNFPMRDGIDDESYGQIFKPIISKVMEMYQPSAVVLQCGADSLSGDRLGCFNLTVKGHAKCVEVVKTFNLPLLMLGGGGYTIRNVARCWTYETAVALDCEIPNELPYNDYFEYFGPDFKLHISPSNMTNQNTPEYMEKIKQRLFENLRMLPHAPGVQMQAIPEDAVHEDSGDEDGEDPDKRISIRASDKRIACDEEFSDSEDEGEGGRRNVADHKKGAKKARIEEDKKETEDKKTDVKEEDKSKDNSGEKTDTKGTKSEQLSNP

As to `Cc1nc(C)c(C(=O)Nc2cccc(C(=O)NO)c2)nc1C` [Compound 8a, N-(3-(Hydroxycarbamoyl)phenyl)-3,5,6-Trimethylpyrazine-2-Carboxamide], the IC50 at HDAC1 (setting [3]) was determined as 468 nM; at HDAC2 (setting [4]), 169 nM; against HDAC2 (setting [5]) it was 168.8 ± 0.13 nM; in experiment [1] it was 4270 ± 120 nM; in experiment [2] it was 1960 ± 50 nM. The “times more potent than Gefitinib toward HT-29 cells” value in experiment [2] (setting [6]) came to 2.5 times.

Turning to `Cc1nc(C)c(C(=O)Nc2cccc(C(=O)NN)c2)nc1C` [Compound 8b, N-(3-(Hydrazinecarbonyl)phenyl)-3,5,6-Trimethylpyrazine-2-Carboxamide], the “fold worsening of effectiveness against HDAC1 on shifting hydrazide ZBG from para (7a) to meta (8b)” value on HDAC1 (8b relative to 7a) came to 15.7 fold. Besides, the IC50 was found to be 1800 nM at HDAC1 (setting [3]); 1800.1 ± 0.45 nM against HDAC1 (setting [7]); 113 nM at HDAC2 (setting [4]); 112.9 ± 0.09 nM at HDAC2 (setting [5]); 28500 ± 800 nM in experiment [1]; 3250 ± 90 nM in experiment [2].

Regarding `Cc1nc(C)c(C(=O)Nc2ccc(CC(=O)NO)cc2)nc1C` [Compound 7b, N-(4-(2-(Hydroxyamino)-2-Oxoethyl)phenyl)-3,5,6-Trimethylpyrazine-2-Carboxamide], the IC50 on HDAC1 (setting [3]) was 2430 nM; against HDAC1 (setting [7]), 2434.7 ± 1.25 nM; against HDAC2 (setting [4]), 132 nM; against HDAC2 (setting [5]), 132.3 ± 0.12 nM; in experiment [1], 67000 ± 1910 nM; in experiment [2], 4570 ± 130 nM.

With `Cc1nc(C)c(C(=O)Nc2ccc(C(=O)NN)cc2)nc1C` [Compound 7a, N-(4-(Hydrazinecarbonyl)phenyl)-3,5,6-Trimethylpyrazine-2-Carboxamide], the IC50 against HDAC1 (setting [3]) worked out at 114 nM; on HDAC1 (setting [7]), 114.3 ± 0.44 nM; against HDAC2 (setting [4]), 53.7 nM; on HDAC2 (setting [5]), 53.7 ± 0.05 nM; in experiment [1], 1600 ± 40 nM; in experiment [2], 15100 ± 430 nM. Further, the “fold enhanced efficiency than reference drug Gefitinib against SH-SY5Y cells” value in experiment [1] (setting [6]) turned out to be 4.7 fold.

For `Cc1nc(C)c(C(=O)Nc2ccc(CC(=O)NN)cc2)nc1C` [Compound 7c, N-(4-(2-Hydrazinyl-2-Oxoethyl)phenyl)-3,5,6-Trimethylpyrazine-2-Carboxamide], the IC50 amounted to 264 nM on HDAC1 (setting [3]); 263.5 ± 1.27 nM against HDAC1 (setting [7]); 205 nM against HDAC2 (setting [4]); 205.4 ± 0.43 nM against HDAC2 (setting [5]); 43400 ± 1210 nM in experiment [1]; 6110 ± 170 nM in experiment [2].
